In PubChem BioAssay (NCI):
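Five concentrations, 48 hours, 96-well plates. At the GI50, growth is halved. TGI is the concentration that stops growth completely.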

What was measured:
Assay in all cases: inhibition of tumour cell growth, NCI panel, 48 h; in the data active = GI50 below about 0.43 µM; inactive = the rest
786-0 renal = test system: 786-0 renal
A498 renal = test system: A498 renal
A549 NSCLC = test system: A549 NSCLC
ACHN renal = test system: ACHN renal
BT-549 breast = test system: BT-549 breast
CAKI-1 renal = test system: CAKI-1 renal
CCRF-CEM leukemia = test system: CCRF-CEM leukemia
COLO 205 colon = test system: COLO 205 colon
DU-145 prostate = test system: DU-145 prostate
EKVX NSCLC = test system: EKVX NSCLC
HCC-2998 colon = test system: HCC-2998 colon
HCT-116 colon = test system: HCT-116 colon
HCT-15 colon = test system: HCT-15 colon
HL-60(TB) leukemia = test system: HL-60(TB) leukemia
HOP-62 NSCLC = test system: HOP-62 NSCLC
HOP-92 NSCLC = test system: HOP-92 NSCLC
HT29 colon = test system: HT29 colon
IGROV1 ovarian = test system: IGROV1 ovarian
K-562 leukemia = test system: K-562 leukemia
KM12 colon = test system: KM12 colon
LOX IMVI melanoma = test system: LOX IMVI melanoma
M14 melanoma = test system: M14 melanoma
MDA-MB-231 breast = test system: MDA-MB-231 breast
MDA-MB-435 = test system: MDA-MB-435
MOLT-4 leukemia = test system: MOLT-4 leukemia
NCI-H226 lung = test system: NCI-H226 lung
NCI-H23 lung = test system: NCI-H23 lung
NCI-H460 lung = test system: NCI-H460 lung
NCI-H522 lung = test system: NCI-H522 lung
NCI/ADR-RES ovarian = test system: NCI/ADR-RES ovarian
OVCAR-3 ovarian = test system: OVCAR-3 ovarian
OVCAR-4 ovarian = test system: OVCAR-4 ovarian
OVCAR-5 ovarian = test system: OVCAR-5 ovarian
OVCAR-8 ovarian = test system: OVCAR-8 ovarian
PC-3 prostate = test system: PC-3 prostate
RPMI-8226 leukemia = test system: RPMI-8226 leukemia
RXF 393 renal = test system: RXF 393 renal
SF-268 CNS = test system: SF-268 CNS
SF-295 CNS = test system: SF-295 CNS
SF-539 CNS = test system: SF-539 CNS
SK-MEL-2 melanoma = test system: SK-MEL-2 melanoma
SK-MEL-28 melanoma = test system: SK-MEL-28 melanoma
SK-MEL-5 melanoma = test system: SK-MEL-5 melanoma
SK-OV-3 ovarian = test system: SK-OV-3 ovarian
SN12C renal = test system: SN12C renal
SNB-19 CNS = test system: SNB-19 CNS
SNB-75 CNS = test system: SNB-75 CNS
SW-620 colon = test system: SW-620 colon
T-47D breast = test system: T-47D breast
TK-10 renal = test system: TK-10 renal
U251 CNS = test system: U251 CNS
UACC-257 melanoma = test system: UACC-257 melanoma
UACC-62 melanoma = test system: UACC-62 melanoma
UO-31 renal = test system: UO-31 renal

O=c1nc2n(-c3cccc(Cl)c3)c3ccc([N+](=O)[O-])cc3cc-2c(=O)[nH]1
12.3 µM: TGI (MDA-MB-231 breast)
13 µM: TGI (UO-31 renal)
11 µM: TGI (HCC-2998 colon)
16 µM: TGI (ACHN renal) | TGI (CAKI-1 renal)
16.8 µM: TGI (M14 melanoma)
inactive: GI50 (786-0 renal) 4.49 µM | GI50 (A498 renal) 16.7 µM | GI50 (A549 NSCLC) 12.7 µM | GI50 (ACHN renal) 5.32 µM | GI50 (BT-549 breast) 4.2 µM | GI50 (CAKI-1 renal) 5.71 µM | GI50 (CCRF-CEM leukemia) 2.09 µM | GI50 (COLO 205 colon) 7.94 µM | GI50 (DU-145 prostate) 6.73 µM | GI50 (EKVX NSCLC) 11.9 µM | GI50 (HCC-2998 colon) 4.92 µM | GI50 (HCT-116 colon) 1.53 µM | GI50 (HCT-15 colon) 9.28 µM | GI50 (HL-60(TB) leukemia) 1.29 µM | GI50 (HOP-62 NSCLC) 2.88 µM | GI50 (HOP-92 NSCLC) 7.75 µM | GI50 (HT29 colon) 9.06 µM | GI50 (IGROV1 ovarian) 17.4 µM | GI50 (K-562 leukemia) 17.1 µM | GI50 (KM12 colon) 3.13 µM | GI50 (LOX IMVI melanoma) 1.93 µM | GI50 (M14 melanoma) 6.55 µM | GI50 (MDA-MB-231 breast) 5.36 µM | GI50 (MDA-MB-435) 4.06 µM | GI50 (MOLT-4 leukemia) 2.02 µM | GI50 (NCI-H226 lung) 5.51 µM | GI50 (NCI-H23 lung) 4.94 µM | GI50 (NCI-H460 lung) 9.77 µM | GI50 (NCI-H522 lung) 7.37 µM | GI50 (NCI/ADR-RES ovarian) 6.15 µM | GI50 (OVCAR-3 ovarian) 1.08 µM | GI50 (OVCAR-4 ovarian) > 25 µM | GI50 (OVCAR-5 ovarian) 11.7 µM | GI50 (OVCAR-8 ovarian) 17 µM | GI50 (PC-3 prostate) 6.01 µM | GI50 (RPMI-8226 leukemia) 3.13 µM | GI50 (RXF 393 renal) 10.1 µM | GI50 (SF-268 CNS) 3.56 µM | GI50 (SF-295 CNS) 4.92 µM | GI50 (SF-539 CNS) 4.4 µM | GI50 (SK-MEL-2 melanoma) > 25 µM | GI50 (SK-MEL-28 melanoma) 8.01 µM | GI50 (SK-MEL-5 melanoma) 5.36 µM | GI50 (SK-OV-3 ovarian) 15 µM | GI50 (SN12C renal) 4.55 µM | GI50 (SNB-19 CNS) 7.5 µM | GI50 (SNB-75 CNS) 11.7 µM | GI50 (SW-620 colon) 2.3 µM | GI50 (T-47D breast) 7.82 µM | GI50 (TK-10 renal) 7.27 µM | GI50 (U251 CNS) 2.63 µM | GI50 (UACC-257 melanoma) 9.78 µM | GI50 (UACC-62 melanoma) 3.54 µM | GI50 (UO-31 renal) 5.87 µM
10.9 µM: TGI (SF-295 CNS)
10.6 µM: TGI (NCI-H23 lung) | TGI (SN12C renal)
13.9 µM: TGI (TK-10 renal)
4.42 µM: TGI (OVCAR-3 ovarian)
11.8 µM: TGI (BT-549 breast) | TGI (SF-539 CNS)
5.68 µM: TGI (HCT-116 colon)
9.52 µM: TGI (LOX IMVI melanoma)
15.3 µM: TGI (PC-3 prostate)
9.2 µM: TGI (HOP-62 NSCLC)
7.57 µM: TGI (KM12 colon)
9.5 µM: TGI (786-0 renal)
19.7 µM: TGI (NCI/ADR-RES ovarian)
8.09 µM: TGI (MDA-MB-435)
24.7 µM: TGI (HOP-92 NSCLC)
> 25 µM: TGI (A498 renal) | TGI (A549 NSCLC) | TGI (CCRF-CEM leukemia) | TGI (COLO 205 colon) | TGI (DU-145 prostate) | TGI (EKVX NSCLC) | TGI (HCT-15 colon) | TGI (HL-60(TB) leukemia) | TGI (HT29 colon) | TGI (IGROV1 ovarian) | TGI (K-562 leukemia) | TGI (MOLT-4 leukemia) | TGI (NCI-H460 lung) | TGI (OVCAR-4 ovarian) | TGI (OVCAR-5 ovarian) | TGI (OVCAR-8 ovarian) | TGI (RXF 393 renal) | TGI (SK-MEL-2 melanoma) | TGI (SK-MEL-28 melanoma) | TGI (SK-OV-3 ovarian) | TGI (SNB-19 CNS) | TGI (SNB-75 CNS) | TGI (SW-620 colon) | TGI (T-47D breast) | TGI (U251 CNS) | TGI (UACC-257 melanoma)
8.38 µM: TGI (UACC-62 melanoma)
21.6 µM: TGI (NCI-H522 lung)
12.8 µM: TGI (SK-MEL-5 melanoma)
13.3 µM: TGI (SF-268 CNS)
10.8 µM: TGI (RPMI-8226 leukemia)
13.6 µM: TGI (NCI-H226 lung)
